Like-named read-outs stand apart in the source and are kept apart here. Where a SMILES comes first, the peptide text is derived from it. Bridges are numbered along the chain shown (N, C = ends). [ ]: non-standard residue; d: D form. Sar = CNCC(=O)O
Key:
[1] = biological target: T1, alpha subunit of the human FcεRI receptor (Homo sapiens, UniProt P12319); test: cell-based 125I-IgE binding inhibition assay on CHO FcεRI+ cells; details: for fold reduction in inhibition/binding: truncations and alanine substitutions of IGE063
T1 construct: expressed in transfected cells; host or cells: Chinese hamster ovary (CHO FcεRI+) cells
T1 sequence (P12319 26-257): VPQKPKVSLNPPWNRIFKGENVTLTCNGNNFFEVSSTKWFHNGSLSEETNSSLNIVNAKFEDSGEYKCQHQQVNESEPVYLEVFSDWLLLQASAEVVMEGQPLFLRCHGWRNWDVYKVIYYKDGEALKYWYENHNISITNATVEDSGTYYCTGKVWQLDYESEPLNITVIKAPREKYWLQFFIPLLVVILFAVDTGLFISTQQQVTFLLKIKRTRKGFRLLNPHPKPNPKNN
Description: . The following day the cells were rinsed three times with PBS and then once with F12/DMEM. Peptide stocks were reconstituted in 100 mM Hepes buffered water, pH 7.2, at a concentration of 5 mg/mL. Working concentrations of the peptide were diluted in assay buffer (see below). 75 ul, of a desired concentration of peptide was added to the top row of a separate 96 well microtiter plate and serially diluted 1:3 in 50 uL of the assay buffer (F12/DMEM, 1% BSA, 0.05% NaN3 and […] Hepes pH 7.2). Starting concentrations ranged from 50-500 uM. Next, 50 uL of the diluted peptide was transferred to the 96 microtiter well plate containing a monolayer of CHO FcεRI+ cells. After a 1 hour incubation at room temperature, 50 uL of ^125I-IgE (1.5 nM) was added to each well and incubated for an additional 45-60 minutes at 4° C. followed by 5 washes with 200 uL of assay buffer. Cells were solubilized with 200 uL of 1 N NaOH and transferred to a 96 microtiter tube for counting in a gamma counter to determine counts bound. The data were plotted using KaleidaGraph 3.0 and fitted using 4-parameter fits. IC50 values were determined for each peptide.
Six peptides based on selected clones from library #516 were synthesized and assayed for the ability to inhibit the binding of ^125I-IgE to a Chinese hamster ovary cell line expressing the alpha subunit of the IgE high affinity receptor, FcεRI. The peptides were synthesized as nine residue monomers and oxidized to allow the formation of a disulfide bridge resulting in a cyclic peptide. The size of each peptide was confirmed by mass spectrometry.

[2] = 2D NMR structural score versus reference peptide; assay type: physicochemical; parameters: key to Struct. Score: +++ indicates the peptide is structured similarly to IGE063 (SEQ ID NO:49); + indicates the peptide is structured similarly to IGE063 (SEQ ID NO:49), but is less stable; −/+ indicates the peptide has some elements of stable structure, but the conformation differs from the reference structure (e.g., a different turn type is evident); − indicates the peptide is predominantly unstructured in aqueous solution; key to Structure Score: +++, peptide structurally similar to reference; +, structurally similar to reference but significantly less stable; +/−, peptide has some elements of stable structure, but the conformation differs from the reference structure; −, peptide is predominantly unstructured; *peptide IGE037 (SEQ ID NO:128) was initially unstructured (monomeric form), but became structured after spontaneous dimer formation; details: for Struct. Score: reference IGE063
Description: Peptides were evaluated by 2D NMR spectroscopy to assess the effect of substitutions on the three-dimensional structure of the peptide analog. All peptides with a structural score indicated in Table 5 were analyzed by 2D NMR spectroscopy; backbone ^1H resonances were assigned and ^3JHN-Hα coupling constants were measured and compared to the reference peptide (IGE063, SEQ ID NO:49; see Example 5). Peptides are defined to be of similar structure to the reference peptide provided chemical shifts, coupling constants, and NOEs are consistent with that structure.
A structural score was assigned to peptides analyzed by 2D NMR spectroscopy. For each of these peptides, backbone ^1H resonances have been assigned, and the ^3JHN-Ha coupling constants have been measured and compared to the reference peptide (i.e., IGE134 (SEQ ID NOS:155, 171)). Peptides are defined to be of similar structure to the reference peptide provided. chemical shifts, coupling constants, and NOEs are consistent with that structure.

[3] = inhibition of labeled IgE-binding to CHO FcεRI+ cells, read-out: Mean IC50(uM) ± S.D.

| SMILES | Struct. Score [2] | also measured |
| --- | --- | --- |
| CSCC[C@H](NC(=O)[C@@H]1CSSC[C@H](NC(=O)[C@H](CCCNC(=N)N)NC(=O)[C@@H]2CCCN2C(=O)[C@H](CC(C)C)NC(=O)[C@@H](N)CC(N)=O)C(=O)N[C@@H]([C@@H](C)O)C(=O)N[C@@H](CCC(=O)O)C(=O)NCC(=O)N2CCC[C@H]2C(=O)N[C@@H](Cc2c[nH]c3ccccc23)C(=O)N[C@@H](C)C(=O)N[C@@H](Cc2c[nH]c3ccccc23)C(=O)N[C@@H](C(C)C)C(=O)N1)C(=O)O [IGE074, NLPRCTEGPWAWVCM] (H-NLPRCTEGPWAWVCM-OH; disulfide 5-14) | + | fold reduction in inhibition/binding [1]: 30 fold |
| CSCC[C@H](NC(=O)[C@@H]1CSSC[C@H](NC(=O)[C@H](CCCNC(=N)N)NC(=O)[C@@H]2CCCN2C(=O)[C@H](CC(C)C)NC(=O)[C@H](CC(N)=O)NC(C)=O)C(=O)N[C@@H]([C@@H](C)O)C(=O)N[C@@H](CCC(=O)O)C(=O)NCC(=O)N2CCC[C@H]2C(=O)N[C@@H](Cc2c[nH]c3ccccc23)C(=O)NCC(=O)N[C@@H](Cc2c[nH]c3ccccc23)C(=O)N[C@@H](C(C)C)C(=O)N1)C(=O)O [IGE063, Ac-NLPRCTEGPWGWVCM] (Ac-NLPRCTEGPWGWVCM-OH; disulfide 5-14) | +++ | IC50 ([1]; IGE037: initially, read-out: IC50): ~1 µM; IC50 [1, 3]: 1.8 ± 0.7 µM |
| CSCC[C@H](NC(=O)[C@@H]1CSSC[C@H](NC(=O)[C@H](CCCNC(=N)N)NC(=O)[C@@H]2CCCN2C(=O)[C@H](CC(C)C)NC(=O)[C@@H](N)CC(N)=O)C(=O)N[C@@H]([C@@H](C)O)C(=O)N[C@@H](CCC(=O)O)C(=O)N[C@@H](C)C(=O)N2CCC[C@H]2C(=O)N[C@@H](Cc2c[nH]c3ccccc23)C(=O)NCC(=O)N[C@@H](Cc2c[nH]c3ccccc23)C(=O)N[C@@H](C(C)C)C(=O)N1)C(=O)O [IGE079, NLPRCTEAPWGWVCM] (H-NLPRCTEAPWGWVCM-OH; disulfide 5-14; N-terminus and C-terminus assumed) | +++ | fold reduction in inhibition/binding [1]: 256 fold |
| CSCC[C@H](NC(=O)[C@@H]1CSSC[C@H](NC(=O)[C@H](CCCNC(=N)N)NC(=O)[C@@H]2CCCN2C(=O)[C@H](CC(C)C)NC(=O)[C@@H](N)CC(N)=O)C(=O)N[C@@H]([C@@H](C)O)C(=O)N[C@@H](CCC(=O)O)C(=O)NCC(=O)N2CCC[C@H]2C(=O)N[C@@H](Cc2c[nH]c3ccccc23)C(=O)NCC(=O)N[C@@H](C)C(=O)N[C@@H](C(C)C)C(=O)N1)C(=O)O [IGE073, NLPRCTEGPWGAVCM] (H-NLPRCTEGPWGAVCM-OH; disulfide 5-14; N-terminus and C-terminus assumed) | + | fold reduction in inhibition/binding [1]: 65 fold |
| CSCC[C@H](NC(=O)[C@@H]1CSSC[C@H](NC(=O)[C@H](CCCNC(=N)N)NC(=O)[C@@H]2CCCN2C(=O)[C@H](CC(C)C)NC(=O)[C@@H](N)CC(N)=O)C(=O)N[C@@H]([C@@H](C)O)C(=O)N[C@@H](CCC(=O)O)C(=O)NCC(=O)N2CCC[C@H]2C(=O)N[C@@H](Cc2c[nH]c3ccccc23)C(=O)NCC(=O)N[C@@H](Cc2c[nH]c3ccccc23)C(=O)N[C@@H](C(C)C)C(=O)N1)C(=O)O [IGE062, NLPRCTEGPWGWVCM] (H-NLPRCTEGPWGWVCM-OH; disulfide 5-14; N-terminus and C-terminus assumed) | +++ | IC50 [1, 3]: 1 ± 0.6 µM |
| CC(C)C[C@@H]1NC(=O)[C@H](CCC(=O)O)NC(=O)[C@H](Cc2ccc(O)cc2)NC(=O)[C@@H]2CSSC[C@H](NC(=O)[C@H](CC(C)C)NC(=O)[C@H](CCC(=O)O)NC(=O)[C@H](Cc3ccc(O)cc3)NC(=O)[C@H](CC(=O)O)NC1=O)C(=O)N1CCC[C@H]1C(=O)N[C@@H](CC(=O)O)C(=O)N[C@@H](C(C)C)C(=O)N[C@H](C(=O)N[C@@H](Cc1ccc(O)cc1)C(=O)N[C@H](C(=O)NCC(=O)N[C@@H](CCCNC(=N)N)C(=O)O)C(C)C)CSSC[C@H](NC(=O)[C@H](CCC(N)=O)NC(=O)[C@@H](N)C(C)C)C(=O)N1CCC[C@H]1C(=O)N[C@@H](Cc1c[nH]cn1)C(=O)N[C@@H](Cc1ccccc1)C(=O)N2 [IGE156] (H-VQCPHFCYELDYELCPDVCYVGR-OH; disulfide 3-19, 7-15 (inferred)) |  | Structure Score ([2]; reference IGE134): +++ |
| CSCC[C@H](NC(=O)[C@@H]1CSSC[C@H](NC(=O)[C@H](CCCNC(=N)N)NC(=O)[C@@H]2CCCN2C(=O)[C@H](CC(C)C)NC(=O)[C@H](CC(N)=O)NC(C)=O)C(=O)N[C@@H]([C@@H](C)O)C(=O)N[C@@H](CCC(=O)O)C(=O)NCC(=O)N2CCC[C@H]2C(=O)N[C@@H](Cc2c[nH]c3ccccc23)C(=O)N[C@H](C)C(=O)N[C@@H](Cc2c[nH]c3ccccc23)C(=O)N[C@@H](C(C)C)C(=O)N1)C(=O)O [IGE105, Ac-NLPRCTEGPWaWVCM] (Ac-NLPRCTEGPW[dA]WVCM-OH; disulfide 5-14; C-terminus assumed) | +++ |  |
| CSCC[C@H](NC(=O)[C@@H]1CSSC[C@H](NC(=O)[C@H](CCCNC(=N)N)NC(=O)[C@@H]2CCCN2C(=O)[C@H](CC(C)C)NC(=O)[C@H](CC(N)=O)NC(C)=O)C(=O)N[C@@H]([C@@H](C)O)C(=O)N[C@@H](CCC(=O)O)C(=O)NCC(=O)N(C)CC(=O)N[C@@H](Cc2c[nH]c3ccccc23)C(=O)NCC(=O)N[C@@H](Cc2c[nH]c3ccccc23)C(=O)N[C@@H](C(C)C)C(=O)N1)C(=O)O [IGE097, Ac-NLPRCTEG(N-Me-G)WGWVCM] (Ac-NLPRCTEG[Sar]WGWVCM-OH; disulfide 5-14; C-terminus assumed) | −/+ |  |
| CSCC[C@H](NC(=O)[C@@H]1CSSC[C@H](NC(=O)[C@H](CCCNC(=N)N)NC(=O)[C@@H]2CCCN2C(=O)[C@H](CC(C)C)NC(=O)[C@H](CC(N)=O)NC(C)=O)C(=O)N[C@@H]([C@@H](C)O)C(=O)N[C@@H](CCC(=O)O)C(=O)NCC(=O)N2CCC[C@H]2C(=O)N[C@@H](Cc2c[nH]c3ccccc23)C(=O)NCC(=O)N[C@@H](CC(C)C)C(=O)N[C@@H](C(C)C)C(=O)N1)C(=O)O [IGE109, Ac-NLPRCTEGPWGLVCM] (Ac-NLPRCTEGPWGLVCM-OH; disulfide 5-14; C-terminus assumed) | +++ |  |
| CSCC[C@H](NC(=O)[C@@H]1CSSC[C@H](NC(=O)[C@H](CCCNC(=N)N)NC(=O)[C@@H]2CCCN2C(=O)[C@H](CC(C)C)NC(=O)[C@@H](N)CC(N)=O)C(=O)N[C@@H]([C@@H](C)O)C(=O)N[C@@H](CCC(=O)O)C(=O)NCC(=O)N2CCC[C@H]2C(=O)N[C@@H](C)C(=O)NCC(=O)N[C@@H](Cc2c[nH]c3ccccc23)C(=O)N[C@@H](C(C)C)C(=O)N1)C(=O)O [IGE072, NLPRCTEGPAGWVCM] (H-NLPRCTEGPAGWVCM-OH; disulfide 5-14; N-terminus and C-terminus assumed) | +++ |  |
| CC(C)C[C@H](NC(=O)[C@@H](N)CC(N)=O)C(=O)N1CCC[C@H]1C(=O)N[C@@H](CCCNC(=N)N)C(=O)N[C@H]1CSSC[C@@H](C(N)=O)NC(=O)[C@H](C(C)C)NC(=O)[C@H](Cc2c[nH]c3ccccc23)NC(=O)CNC(=O)[C@H](Cc2c[nH]c3ccccc23)NC(=O)[C@@H]2CCCN2C(=O)CNC(=O)[C@H](CCC(=O)O)NC(=O)[C@H]([C@@H](C)O)NC1=O [IGE091, NLPRCTEGPWGWVC-nh2] (H-NLPRCTEGPWGWVC-NH2; disulfide 5-14) | +++ |  |
| CSCC[C@H](NC(=O)[C@@H]1CSSC[C@H](NC(=O)[C@@H]2CCCN2C(=O)[C@H](CC(C)C)NC(=O)[C@H](CC(N)=O)NC(C)=O)C(=O)N[C@@H]([C@@H](C)O)C(=O)N[C@@H](CCC(=O)O)C(=O)NCC(=O)N2CCC[C@H]2C(=O)N[C@@H](Cc2c[nH]c3ccccc23)C(=O)NCC(=O)N[C@@H](Cc2c[nH]c3ccccc23)C(=O)N[C@@H](C(C)C)C(=O)N1)C(=O)O [IGE107, Ac-NLPCTEGPWGWVCM] (Ac-NLPCTEGPWGWVCM-OH; disulfide 4-13) | + |  |
